Measured values published in patent US6787541B1, “Thieno-and furopyrimidine derivatives as A2A-receptor antagonists” (Vernalis Research Limited, priority 1999, dated 2004).
Structures can show the parent of a compound that is named as a salt.

First: Cc1ccc(C(=O)c2nc(C(F)(F)F)nc3ccsc23)s1
Second: Cc1cccc(C(=O)c2nc(C(F)(F)F)nc3ccsc23)c1 [Example 32, 3-Methylphenyl 2-trifluoromethylthieno[3,2-d]pyrimidin-4-ylmethanone]
The melting point of the first is higher: 161 to 163 °C for the first, 131 to 133 °C for the second.

First: CN(C)CC(=O)Nc1nc(C(=O)c2cccs2)c2sccc2n1 (as salt: hydrochloride) [Example 169, 2-Dimethylamino-N-(4-(2-thienylcarbonyl)thieno[3,2-d]pyrimidin-2-yl)acetamide hydrochloride]
Second: CC(=O)NCCNc1nc(C(=O)c2cccs2)c2sccc2n1 [Example 90, N-(2-(4-(2-Thienylcarbonyl)thieno[3,2-d]pyrimidin-2-yl)aminoethyl)acetamide]
The melting point of the first is lower: 151 °C for the first, 212.2 to 212.5 °C for the second.

First: O=C(c1cccc(Cl)c1)c1nc(C(F)(F)F)nc2ccsc12 [Example 9, 3-Chlorophenyl 2-trifluoromethylthieno[3,2-d]pyrimidin-4-ylmethanone]
Second: O=C(c1ccc(Cl)cc1)c1nc(C(F)(F)F)nc2ccsc12 [Example 30, 4-Chlorophenyl 2-trifluoromethylthieno[3,2-d]pyrimidin-4-ylmethanone]
The melting point of the first is higher: 128 to 130 °C for the first, 127 to 128 °C for the second.

First: O=C(c1cc(Cl)cc(Cl)c1)c1nc(C(F)(F)F)nc2ccsc12 [Example 10, 3,5-Dichlorophenyl 2-trifluoromethylthieno[3,2-d]pyrimidin-4-ylmethanone]
Second: COc1ccc(C(=O)c2nc(C(F)(F)F)nc3ccsc23)cc1 [Example 27, 4-Methoxyphenyl 2-trifluoromethylthieno[3,2-d]pyrimidin-4-ylmethanone]
The melting point of the first is lower: 147 to 149 °C for the first, 155 to 157 °C for the second.

First: O=C(c1cc2ccccc2o1)c1nc(C(F)(F)F)nc2ccsc12 [Example 15, 2-Benzofuranyl 2-trifluoromethylthieno[3,2-d]pyrimidin-4-ylmethanone]
Second: Cc1c(C(=O)c2nc(C(F)(F)F)nc3ccsc23)sc2ccccc12 [Example 62, 3-Methylbenzothiophene-2-yl 2-trifluoromethylthieno[3,2-d]pyrimidin-4-ylmethanone]
The melting point of the first is lower: 221 to 223 °C for the first, 262 to 263 °C for the second.

First: Cc1csc2c(C(=O)c3cccs3)nc(Cl)nc12 [Example 24, 2-Chloro-7-methylthieno[3,2-d]pyrimidin-4-yl 2-thienylmethanone]
Second: Cc1csc2c(C(=O)c3cccs3)nc(N(C)C)nc12 [Example 38, 2-Dimethylamino-7-methylthieno[3,2-d]pyrimidin-4-yl 2-thienylmethanone]
The melting point of the first is higher: 188 to 190 °C for the first, 156 to 158 °C for the second.

First: O=C(c1ccc([N+](=O)[O-])cc1)c1nc(C(F)(F)F)nc2ccsc12 [Example 31, 4-Nitrophenyl 2-trifluoromethylthieno[3,2-d]pyrimidin-4-ylmethanone]
Second: OC(c1cccs1)c1nc(C(F)(F)F)nc2ccsc12 (stereo not drawn) [Example 41, α-(2-Thienyl)-2-trifluoromethylthieno[3,2-d]pyrimidine-4-methanol]
The melting point of the first is higher: 185 to 186 °C for the first, 157 to 158 °C for the second.

First: CCc1nc(C(O)c2cccs2)c2sccc2n1 (stereo not drawn) [Example 36, 2-Ethyl-α-(2-thienyl)thieno[3,2-d]pyrimidine-4-methanol]
Second: Cc1nc(C(O)c2cccs2)c2sccc2n1 (stereo not drawn) [Example 53, 2-Methyl-α-(2-thienyl)thieno[3,2-d]pyrimidine-4-methanol]
The melting point of the first is higher: 147 to 149 °C for the first, 144 to 146 °C for the second.

In the case of `NCCNc1nc(C(=O)c2cccs2)c2sccc2n1` (as salt: hydrochloride) [Example 55, 2-(2-Aminoethylamino)thieno[3,2-d]pyrimidin-4-yl 2-thienylmethanone dihydrochloride], the melting point is reported as > 190 °C (dec.).
With `CN(C)CCNc1nc(C(=O)c2cccs2)c2sccc2n1` (as salt: hydrochloride) [Example 66, 2-(2-Dimethylaminoethylamino)thieno[3,2-d]pyrimidin-4-yl 2-thienylmethanone dihydrochloride] the melting point was > 150 °C (dec.).
